18 compounds from patent US8231888B2, “Isoxazolines for controlling invertebrate pests” (priority 2005, dated 2012) can be followed below.

Format in all cases: in vivo
In test [1] the test system is fall armyworm (Spodoptera frugiperda). Nature of the test: Test B: control of fall armyworm on corn (maize) plant, foliar spray. To be noted: sprayed at 250 and/or 50 ppm; no asterisk (not limited to 250 ppm). The procedure: (§1) Test compounds were formulated using a solution containing 10% acetone, 90% water and 300 ppm X-77™ Spreader Lo-Foam Formula non-ionic surfactant containing alkylarylpolyoxyethylene, free fatty acids, glycols and isopropanol (Loveland Industries, Inc. Greeley, Colo., USA). The formulated compounds were applied in 1 mL of liquid through a SUJ2 atomizer nozzle with 1/8 JJ custom body (Spraying Systems Co. Wheaton, Ill., USA) positioned 1.27 cm (0.5 inches) above the top of each test unit. All experimental compounds in these tests were sprayed at 250 and/or 50 ppm, and the test was replicated three times. After spraying of the formulated test compound, each test unit was allowed to dry for 1 h and then a black, screened cap was placed on top. The test units were held for 6 days in a growth chamber at 25° C. and 70% relative humidity. Plant feeding damage was then visually assessed based on foliage consumed and a pest mortality rating was also counted and calculated for each test unit.
For evaluating control of fall armyworm (Spodoptera frugiperda) the test unit consisted of a small open container with a 4-5-day-old corn (maize) plant inside. This was pre-infested (using a core sampler) with 10-15 1-day-old larvae on a piece of insect diet. Test compounds were formulated and sprayed at 250 and/or 50 ppm as described for Test A and replicated three times. After spraying, the test units were maintained in a growth chamber and then the control efficacy was rated for each test unit as described for Test A.

Test [2] concerns western flower thrips (Frankliniella occidentalis). The test is described as follows: Test D: control of western flower thrips on Soleil bean plant, contact and/or systemic. The settings on record: 6 days, 25° C. The protocol: as §1
For evaluating control of the western flower thrips (Frankliniella occidentalis) through contact and/or systemic means, the test unit consisted of a small open container with a 5-7 day old Soleil Bean plant inside. Test compounds were formulated and sprayed at 250 and/or 50 ppm, and the test was replicated three times as described for Test A. After spraying, the test units were allowed to dry for 1 hour and then 22-27 adult thrips were added to each unit and then a black, screened cap was placed on top. The test units were held for 6 days at 25° C. and 45-55% relative humidity. A mortality rating was assessed along with a plant damage rating for each test unit.

Test [3] has as its system diamondback moth (Plutella xylostella). Nature of the test: Test A: control of diamondback moth on radish plant, foliar spray. To be noted: sprayed at 250 and/or 50 ppm, 6 days, 25° C.; no asterisk (not limited to 250 ppm).
Description: For evaluating control of diamondback moth (Plutella xylostella) the test unit consisted of a small open container with a 12-14-day-old radish plant inside. This was pre-infested with about 50 neonate larvae that were dispensed into the test unit via corn cob grits using a bazooka inoculator. The larvae moved onto the test plant after being dispensed into the test unit.
as §1

Where [4] appears, read: asterisk: observed only at 250 ppm.
Where [5] appears, read: sprayed at 250 and/or 50 ppm, no asterisk (not limited to 250 ppm).

Turning to `CC(NC(=O)c1ccc(C2=NOC(c3cc(Cl)cc(Cl)c3)(C(F)(F)F)C2)c2ccccc12)c1ccccc1` (mixture of isomers) [Compound 15], the “control efficacy (20% or less feeding damage or 80% or more mortality)” value in test [1], in test [2] (setting [4]) and in test [3] was “very good to excellent levels of control efficacy” throughout.
Take `CCC(C)NC(=O)c1ccc(C2=NOC(c3cc(Cl)cc(Cl)c3)(C(F)(F)F)C2)c2ccccc12` (mixture of isomers) [Compound 32]: the “control efficacy (20% or less feeding damage or 80% or more mortality)” value in test [1], in test [2] (setting [5]) and in test [3] was “very good to excellent levels of control efficacy” in each case.
In the case of `O=C(NCC(F)(F)F)c1ccc(C2=NOC(c3cc(Cl)cc(Cl)c3)(C(F)(F)F)C2)c2ccccc12` (stereo not drawn) [Compound 1], the “control efficacy (20% or less feeding damage or 80% or more mortality)” value in test [1], in test [2] (setting [5]) and in test [3] was “very good to excellent levels of control efficacy” throughout.
As to `FC(F)(F)C1(c2cc(Cl)cc(Cl)c2)CC(c2ccc(C(=S)NCc3ccccn3)c3ccccc23)=NO1` (stereo not drawn) [Compound 8], the “control efficacy (20% or less feeding damage or 80% or more mortality)” value in test [1], in test [2] (setting [5]) and in test [3] was “very good to excellent levels of control efficacy” each time.
Consider `CCNC(=O)c1ccc(C2=NOC(c3cc(Cl)cc(Cl)c3)(C(F)(F)F)C2)c2ccccc12` (stereo not drawn) [Compound 10], for which the “control efficacy (20% or less feeding damage or 80% or more mortality)” value in test [1], in test [2] (setting [5]) and in test [3] was “very good to excellent levels of control efficacy” throughout.
In the case of `COC(=O)N(Cc1ccccn1)C(=O)c1ccc(C2=NOC(c3cc(Cl)cc(Cl)c3)(C(F)(F)F)C2)c2ccccc12` (stereo not drawn) [Compound 11], the “control efficacy (20% or less feeding damage or 80% or more mortality)” value in test [1], in test [2] (setting [5]) and in test [3] was “very good to excellent levels of control efficacy” throughout.
For `CN(C)CCNC(=O)c1ccc(C2=NOC(c3cc(Cl)cc(Cl)c3)(C(F)(F)F)C2)c2ccccc12` (stereo not drawn) [Compound 13], the “control efficacy (20% or less feeding damage or 80% or more mortality)” value in test [1], in test [2] (setting [4]) and in test [3] was “very good to excellent levels of control efficacy” throughout.
`CN(C)CCNC(=O)c1ccc(C2=NOC(c3cc(Cl)cc(Cl)c3)(C(F)(F)F)C2)c2ccccc12.Cl` (stereo not drawn) [Compound 14]: the “control efficacy (20% or less feeding damage or 80% or more mortality)” value in test [1], in test [2] (setting [4]) and in test [3] was “very good to excellent levels of control efficacy” throughout.
In the case of `CC(C)NC(=O)c1ccc(C2=NOC(c3cc(Cl)cc(Cl)c3)(C(F)(F)F)C2)c2ccccc12` (stereo not drawn) [Compound 16], the “control efficacy (20% or less feeding damage or 80% or more mortality)” value in test [1], in test [2] (setting [5]) and in test [3] was “very good to excellent levels of control efficacy” throughout.
With `C=CCNC(=O)c1ccc(C2=NOC(c3cc(Cl)cc(Cl)c3)(C(F)(F)F)C2)c2ccccc12` (stereo not drawn) [Compound 18], the “control efficacy (20% or less feeding damage or 80% or more mortality)” value in test [1], in test [2] (setting [5]) and in test [3] was “very good to excellent levels of control efficacy” in each case.
Regarding `C#CCNC(=O)c1ccc(C2=NOC(c3cc(Cl)cc(Cl)c3)(C(F)(F)F)C2)c2ccccc12` (stereo not drawn) [Compound 19], the “control efficacy (20% or less feeding damage or 80% or more mortality)” value in test [1], in test [2] (setting [5]) and in test [3] was “very good to excellent levels of control efficacy” in each case.
With `O=C(NCC1CC1)c1ccc(C2=NOC(c3cc(Cl)cc(Cl)c3)(C(F)(F)F)C2)c2ccccc12` (stereo not drawn) [Compound 20], the “control efficacy (20% or less feeding damage or 80% or more mortality)” value in test [1], in test [2] (setting [4]) and in test [3] was “very good to excellent levels of control efficacy” each time.
With `CC(NC(=O)c1ccc(C2=NOC(c3cc(Cl)cc(Cl)c3)(C(F)(F)F)C2)c2ccccc12)c1ccccn1` (stereo not drawn) [Compound 21], the “control efficacy (20% or less feeding damage or 80% or more mortality)” value in test [1], in test [2] (setting [5]) and in test [3] was “very good to excellent levels of control efficacy” each time.
Take `CCC(C)NC(=O)c1ccc(C2=NOC(c3cc(Cl)cc(Cl)c3)(C(F)(F)F)C2)c2ccccc12` (stereo not drawn) [Compound 33]: the “control efficacy (20% or less feeding damage or 80% or more mortality)” value in test [2] (setting [4]) is on record as “very good to excellent levels of control efficacy”.
For the compound `CC(=O)NNC(=O)c1ccc(C2=NOC(c3cc(Cl)cc(Cl)c3)(C(F)(F)F)C2)c2ccccc12` (stereo not drawn) [Compound 45], the “control efficacy (20% or less feeding damage or 80% or more mortality)” value in test [2] (setting [4]) and in test [3] was “very good to excellent levels of control efficacy” each time.
Turning to `NCCNC(=O)c1ccc(C2=NOC(c3cc(Cl)cc(Cl)c3)(C(F)(F)F)C2)c2ccccc12` (stereo not drawn) [Compound 47], the “control efficacy (20% or less feeding damage or 80% or more mortality)” value in test [2] (setting [4]) and in test [3] was “very good to excellent levels of control efficacy” throughout.
On to `COC(=O)[C@H](C)NC(=O)c1ccc(C2=NOC(c3cc(Cl)cc(Cl)c3)(C(F)(F)F)C2)c2ccccc12` (stereo partly drawn) [Compound 48], for which the “control efficacy (20% or less feeding damage or 80% or more mortality)” value in test [2] (setting [4]) and in test [3] was “very good to excellent levels of control efficacy” in each case.
As for `O=C(NCc1ccccn1)c1ccc(C2=NOC(c3ccnc(Cl)c3)(C(F)(F)F)C2)c2ccccc12` (stereo not drawn) [Compound 202], the “control efficacy (20% or less feeding damage or 80% or more mortality)” value in test [1] and in test [3] was “very good to excellent levels of control efficacy” in each case.
